Assay results: the supplement of paper PMC9780213

How the values were obtained:
Settings in all cases: treatment time: 24 h
U2OS-mOrange2-Peroxisome = assay: cell count relative to DMSO control (panel B, lysosome/peroxisome/lipid stain) (fraction of control); higher = more cells (less toxicity)
Procedure: (§1)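 U2OS-derived cells in 384-well plates were treated for 24 h with a 7-point 2-fold dilution series (top dose 20 µM for most compounds; final max DMSO 1%), then fixed, stained in four marker panels and imaged on a Cellomics ArrayScan. Cell count per treatment (three replicate plates merged) is given as a fraction of DMSO control. Panel A used parental U2OS, panel B U2OS-mOrange2-Peroxisome, panel C1 U2OS-LMNB1-TUBA1B-ACTB (DRAQ5 nuclei).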

U2OS = assay: cell count relative to DMSO control (panel A, nuclei/RNA/PMG/mitochondria stain) (fraction of control); higher = more cells (less toxicity)
Procedure: as §1

U2OS-LMNB1-TUBA1B-ACTB = assay: cell count relative to DMSO control (panel C1, DRAQ5/ER stain) (fraction of control); higher = more cells (less toxicity)
Procedure: as §1

## CC[C@H]1/C=C/C=C/C[C@@H](C)[C@H](O)[C@@](C)(O)C(=O)[C@@H](C)[C@H](O)[C@@H](C)C(=O)[C@@H](C)[C@H](O)[C@@H](C)/C=C/C(=O)O[C@@H]2[C@H](C)[C@H](CC1)O[C@]1(CC[C@H](C)[C@H](C[C@@H](C)O)O1)[C@H]2C [oligomycin-a]
U2OS-mOrange2-Peroxisome; 0.15625 µM
  cell count: 0.52
U2OS-mOrange2-Peroxisome; 0.3125 µM
  cell count: 0.906
U2OS-mOrange2-Peroxisome; 0.625 µM
  cell count: 0.944
U2OS-mOrange2-Peroxisome; 1.25 µM
  cell count: 0.895
U2OS-mOrange2-Peroxisome; 2.5 µM
  cell count: 0.858
U2OS-mOrange2-Peroxisome; 5 µM
  cell count: 1.21
U2OS-mOrange2-Peroxisome; 10 µM
  cell count: 1.09
U2OS; 0.15625 µM
  cell count: 0.555
U2OS; 0.3125 µM
  cell count: 0.986
U2OS; 0.625 µM
  cell count: 0.995
U2OS; 1.25 µM
  cell count: 1.04
U2OS; 2.5 µM
  cell count: 0.938
U2OS; 5 µM
  cell count: 0.99
U2OS; 10 µM
  cell count: 0.925
U2OS-LMNB1-TUBA1B-ACTB; 0.15625 µM
  cell count: 0.621
U2OS-LMNB1-TUBA1B-ACTB; 0.3125 µM
  cell count: 1.03
U2OS-LMNB1-TUBA1B-ACTB; 0.625 µM
  cell count: 1.07
U2OS-LMNB1-TUBA1B-ACTB; 1.25 µM
  cell count: 1
U2OS-LMNB1-TUBA1B-ACTB; 2.5 µM
  cell count: 1.03
U2OS-LMNB1-TUBA1B-ACTB; 5 µM
  cell count: 1.09
U2OS-LMNB1-TUBA1B-ACTB; 10 µM
  cell count: 1.05

## Cc1ccc(S(=O)(=O)c2ccc([N+](=O)[O-])o2)cc1
U2OS-mOrange2-Peroxisome; 0.15625 µM
  cell count: 0.927
U2OS-mOrange2-Peroxisome; 0.3125 µM
  cell count: 0.934
U2OS-mOrange2-Peroxisome; 0.625 µM
  cell count: 0.938
U2OS-mOrange2-Peroxisome; 1.25 µM
  cell count: 0.864
U2OS-mOrange2-Peroxisome; 2.5 µM
  cell count: 1.16
U2OS-mOrange2-Peroxisome; 5 µM
  cell count: 0.964
U2OS-mOrange2-Peroxisome; 10 µM
  cell count: 0.837
U2OS; 0.15625 µM
  cell count: 1.02
U2OS; 0.3125 µM
  cell count: 0.974
U2OS; 0.625 µM
  cell count: 1.04
U2OS; 1.25 µM
  cell count: 1.05
U2OS; 2.5 µM
  cell count: 1.01
U2OS; 5 µM
  cell count: 0.917
U2OS; 10 µM
  cell count: 0.886
U2OS-LMNB1-TUBA1B-ACTB; 0.15625 µM
  cell count: 1.01
U2OS-LMNB1-TUBA1B-ACTB; 0.3125 µM
  cell count: 1.1
U2OS-LMNB1-TUBA1B-ACTB; 0.625 µM
  cell count: 1.02
U2OS-LMNB1-TUBA1B-ACTB; 1.25 µM
  cell count: 1.12
U2OS-LMNB1-TUBA1B-ACTB; 2.5 µM
  cell count: 1.1
U2OS-LMNB1-TUBA1B-ACTB; 5 µM
  cell count: 1.02
U2OS-LMNB1-TUBA1B-ACTB; 10 µM
  cell count: 0.982
